Earlier results in patent US20240050388A1 (BioLink Life Sciences, Inc., priority 2022, published 2024).

Settings: oral

Structure (SMILES): CC(=O)[O-].CC(=O)[O-].[Ca+2] [calcium acetate]
- In vivo phosphate binding: essentially quantitative
